Reference: ChEMBL document CHEMBL4706623, “GPR52 Antagonist Reduces Huntingtin Levels and Ameliorates Huntington's Disease-Related Phenotypes” (J Med Chem, 2021)

Biological target: G-protein coupled receptor 52 (Homo sapiens, UniProt Q9Y2T5)
Assay: Antagonist activity at GPR52 (unknown origin) expressed in HEK293 cells assessed as inhibition of WO459-induced cAMP accumulation preincubated for 15 mins followed by WO459 addition and measured after 30 mins by LANCE Ultra cAMP kit based microplate reader analysis; call rule not given here
Type: functional, cell-based

Chain of G-protein coupled receptor 52 (Q9Y2T5 whole entry): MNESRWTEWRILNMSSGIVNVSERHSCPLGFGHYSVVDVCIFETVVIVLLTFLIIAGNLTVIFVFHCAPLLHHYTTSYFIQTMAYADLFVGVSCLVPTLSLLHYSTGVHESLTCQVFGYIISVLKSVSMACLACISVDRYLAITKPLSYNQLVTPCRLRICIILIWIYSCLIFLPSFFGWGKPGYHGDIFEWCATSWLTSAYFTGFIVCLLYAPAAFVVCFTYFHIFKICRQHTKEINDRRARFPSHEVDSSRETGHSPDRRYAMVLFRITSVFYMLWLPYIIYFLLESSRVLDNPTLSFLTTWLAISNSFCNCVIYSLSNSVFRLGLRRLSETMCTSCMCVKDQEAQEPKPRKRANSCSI

| IC50 (read-out: IC50) | IC50 (hek293) | SMILES |
| --- | --- | --- |
| 3.02 µM | – | Cc1ccc(C(=O)/C=C/CCc2ccccc2)cc1 |
| 2.82 µM | – | Cc1cccc(C)c1C(=O)/C=C/CCc1ccccc1 |
| 1.49 µM | – | COc1cccc(C(=O)/C=C/CCc2ccccc2)c1 |
| 7.64 µM | – | O=C(/C=C/CCc1ccccc1)c1ccc(-c2ccccc2)cc1 |
| 3.87 µM | – | COc1ccc(C(=O)/C=C/CCc2ccccc2)cc1 |
| – | Not Active | O=C(/C=C/CCc1ccccc1)c1ccc(F)cc1 |
